Measurements published in patent US10047051B2, “Substituted pyridines and method of use” (AbbVie S.á{acute over (.)}r.l., priority 2015, dated 2018).

Key:
Assay type in all cases: cell-based
CFTR ΔF508 mutant = molecular target: T1, CFTR ΔF508 mutant (Homo sapiens, UniProt P13569, DEL508-508); experiment: YFP-halide influx assay for the CFTR-ΔF508 mutation (CFBE41o- cells); settings: forskolin 10.67 μM; for EC50: from (1−F/F0) vs concentration plot
T1 construct: expressed in transfected cells; host or cells: CFBE41o- cells, adenoviral transduction
How it was run: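 CFBE41o- cells transduced with adenovirus expressing CFTR ΔF508 and halide-sensitive YFP H148Q/I152L/F47L, then held 24 h at 27° C or with a CFTR modulator 24 h at 37° C. Iodide-induced quench recorded 2 min; EC50 from (1−F/F0) at 36 s versus concentration.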

CFTR G551D mutant = molecular target: T2, CFTR G551D mutant (Homo sapiens, UniProt P13569, G551D); experiment: YFP-halide influx assay for the CFTR-G551D mutation (HEK293 cells); settings: forskolin 10.67 μM
T2 construct: expressed in transfected cells; host or cells: HEK293 cells, reverse transfection with plasmids
How it was run: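 HEK293 cells reverse-transfected with CFTR G551D and halide-sensitive YFP (H148Q/I152L/F47L), expressed 24 h at 37 °C. YFP fluorescence quenching recorded for 7 s after I⁻ injection. Response = 1−F/F0; EC50 derived from 1−F/F0 vs compound concentration.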

CFTR-G178R = molecular target: T3, CFTR-G178R (Homo sapiens, UniProt P13569, G178R); experiment: YFP-halide influx assay for the CFTR-G178R
T3 construct: expressed in transfected cells
Excerpt: (§1) The YFP halide influx assay measured the functionality of the cystic fibrosis Transmembrane Conductance regulator (CFTR) channels. The assay was used to evaluate the capacity of compounds to increase the channel opening of existing mutant CFTR channels in the membrane. It makes use of the observation that the yellow fluorescent protein (YFP) variant YFP H148Q, I152L, F47L has its fluorescence substantially quenched by halide ions like Cl^− and I^− (Galietta, L. J. V., Haggie, P. M., Verkman, A. S., 2001. Green fluorescent protein-based halide indicators with improved chloride and iodide affinities. FEBS Lett. 499, 220-224. doi:10.1016/S0014-5793(01)02561-3).
(§2) For this purpose, HEK293-cells were seeded in 96 well plates. During seeding, the cells were reverse-transfected with plasmid vectors that direct the expression of the CFTR G551D mutant and of the YFP reporter. Cells were incubated at 37° C., 5% CO2 for 24 hours so as to allow for sufficient expression of the CFTR protein.
(§3) The I^−-induced quenching of fluorescence was recorded immediately after injection of I^− for 7 seconds. The capacity of a compound to increase the channel opening was directly correlated with the decrease in fluorescence, and was expressed as (1−(fluorescence after 7 seconds (F)/fluorescence before injection (F0))) and an EC50 was derived from a (1−F/F0) vs compound concentration plot.
(§4) Similar YHA assays were developed for other channel gating defective or channel conductance defective CFTR mutants to determine effect of compound on channel activity. Examples of mutants are G178R, G1349D, S549N, R117H, R334W. This assay is also used for additional class I CFTR mutants, including G542X, W1282X; class II mutants including N1303K, and for class III mutants including S1251N; or wild-type CFTR.

CFTR-G1349D = molecular target: T4, CFTR-G1349D (Homo sapiens, UniProt P13569, G1349D); experiment: YFP-halide influx assay for the CFTR-G1349D
T4 construct: expressed in transfected cells
Excerpt: as §1, §2, §3, §4

CFTR-S549N = molecular target: T5, CFTR-S549N (Homo sapiens, UniProt P13569, S549N); experiment: YFP-halide influx assay for the CFTR-S549N; set-up: % Activation: concentration or dose not given beside the values
T5 construct: expressed in transfected cells
Excerpt: as §1, §2, §3, §4

CFTR-R117H = molecular target: T6, CFTR-R117H (Homo sapiens, UniProt P13569, R117H); experiment: YFP-halide influx assay for the CFTR-R117H
T6 construct: expressed in transfected cells
Excerpt: as §1, §2, §3, §4

G551D CFTR = G551D CFTR (Homo sapiens, UniProt P13569, G551D); experiment: TECC assay, FRT-CFTR G551D protocol; settings: FRT cells stably transfected with G551D CFTR, high expression cells, increase in Isc after forskolin
Method: For G551D recordings, Fischer Rat Thyroid (FRT) cells stably transfected with G551D CFTR (a low CFTR-G551D expressing cell line and a high expressing CFTR-G551D cell line from Rosalind Franklin University of Medicine and Science, North Chicago, Ill.) are plated on Transwell® supports (Costar 6.5 mm diameter, 0.4 μm pore size). The cells are grown for 8-10 days under liquid-liquid interface conditions prior to electrophysiological readings. For electrophysiological recording, the FRT-G551D cells are mounted in the TECC heating plate for electrophysiological measurement and kept at 37° C. The epithelia are bathed in HEPES buffered culturing medium without FBS on both the basolateral and apical sides. Apical amiloride is used to inhibit the endogenous ENaC currents while forkolin is applied on both apical and basolateral side to stimulate CFTR. After forskolin triggering, compounds are added on both sides to test their potential for increasing CFTR gating. Measurements are done during a 10 minute timeframe with recordings every 2 minutes. The increase in Isc is used as a measure for the increased CFTR activity, EC50 values can be generated by measuring impact of different concentrations of compound on Isc on the cells, for this purpose each transwell is treated with a different compound concentration. Inh-172, an inhibitor specific for CFTR, is used to test the specificity of the tested compounds.

T3 sequence (P13569 whole entry G178R): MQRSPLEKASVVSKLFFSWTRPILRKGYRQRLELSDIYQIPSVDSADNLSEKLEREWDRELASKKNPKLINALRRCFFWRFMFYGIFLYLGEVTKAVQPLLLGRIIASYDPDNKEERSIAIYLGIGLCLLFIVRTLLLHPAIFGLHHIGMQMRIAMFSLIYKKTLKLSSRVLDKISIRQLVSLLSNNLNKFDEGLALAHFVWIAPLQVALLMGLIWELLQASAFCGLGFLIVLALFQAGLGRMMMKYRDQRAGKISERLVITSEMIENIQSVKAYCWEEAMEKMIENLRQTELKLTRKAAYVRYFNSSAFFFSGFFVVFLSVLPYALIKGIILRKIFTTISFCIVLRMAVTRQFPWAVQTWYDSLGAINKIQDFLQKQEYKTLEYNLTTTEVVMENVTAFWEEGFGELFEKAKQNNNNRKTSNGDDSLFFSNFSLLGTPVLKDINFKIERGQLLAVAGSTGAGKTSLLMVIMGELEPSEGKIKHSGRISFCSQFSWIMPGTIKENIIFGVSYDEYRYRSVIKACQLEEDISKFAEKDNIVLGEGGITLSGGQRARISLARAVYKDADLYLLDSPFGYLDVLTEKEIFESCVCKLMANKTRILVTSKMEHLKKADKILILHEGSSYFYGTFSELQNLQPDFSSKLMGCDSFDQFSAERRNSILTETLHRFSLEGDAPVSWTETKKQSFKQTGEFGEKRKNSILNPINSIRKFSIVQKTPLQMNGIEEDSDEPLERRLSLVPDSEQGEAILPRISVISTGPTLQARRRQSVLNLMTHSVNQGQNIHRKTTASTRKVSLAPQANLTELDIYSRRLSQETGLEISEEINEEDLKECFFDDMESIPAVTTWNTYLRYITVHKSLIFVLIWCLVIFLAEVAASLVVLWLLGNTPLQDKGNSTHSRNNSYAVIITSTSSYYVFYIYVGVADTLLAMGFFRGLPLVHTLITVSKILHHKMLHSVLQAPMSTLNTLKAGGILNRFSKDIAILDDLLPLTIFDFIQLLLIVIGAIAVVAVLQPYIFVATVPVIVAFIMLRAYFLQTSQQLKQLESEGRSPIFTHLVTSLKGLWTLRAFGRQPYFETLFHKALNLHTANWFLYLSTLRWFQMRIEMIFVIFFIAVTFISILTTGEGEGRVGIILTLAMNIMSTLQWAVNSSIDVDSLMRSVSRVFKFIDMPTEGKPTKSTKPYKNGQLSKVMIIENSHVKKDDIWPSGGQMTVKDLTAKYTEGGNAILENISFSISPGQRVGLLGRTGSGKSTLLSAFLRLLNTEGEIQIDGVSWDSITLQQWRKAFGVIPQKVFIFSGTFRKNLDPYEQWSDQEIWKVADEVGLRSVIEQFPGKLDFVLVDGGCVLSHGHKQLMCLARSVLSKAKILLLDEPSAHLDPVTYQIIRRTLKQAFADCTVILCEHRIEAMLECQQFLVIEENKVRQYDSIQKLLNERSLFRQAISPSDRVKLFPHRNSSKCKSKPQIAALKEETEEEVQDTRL
T4 sequence (P13569 whole entry G1349D): as the sequence (P13569 whole entry G178R) above, with R178G, G1349D counted along it
T5 sequence (P13569 whole entry S549N): as the sequence (P13569 whole entry G178R) above, with R178G, S549N counted along it
T2 sequence (P13569 whole entry G551D): as the sequence (P13569 whole entry G178R) above, with R178G, G551D counted along it
Chain of G551D CFTR (P13569 whole entry G551D): as the sequence (P13569 whole entry G178R) above, with R178G, G551D counted along it
T6 sequence (P13569 whole entry R117H): as the sequence (P13569 whole entry G178R) above, with R117H, R178G counted along it
T1 sequence (P13569 with tags, fused parts or gaps DEL508-508): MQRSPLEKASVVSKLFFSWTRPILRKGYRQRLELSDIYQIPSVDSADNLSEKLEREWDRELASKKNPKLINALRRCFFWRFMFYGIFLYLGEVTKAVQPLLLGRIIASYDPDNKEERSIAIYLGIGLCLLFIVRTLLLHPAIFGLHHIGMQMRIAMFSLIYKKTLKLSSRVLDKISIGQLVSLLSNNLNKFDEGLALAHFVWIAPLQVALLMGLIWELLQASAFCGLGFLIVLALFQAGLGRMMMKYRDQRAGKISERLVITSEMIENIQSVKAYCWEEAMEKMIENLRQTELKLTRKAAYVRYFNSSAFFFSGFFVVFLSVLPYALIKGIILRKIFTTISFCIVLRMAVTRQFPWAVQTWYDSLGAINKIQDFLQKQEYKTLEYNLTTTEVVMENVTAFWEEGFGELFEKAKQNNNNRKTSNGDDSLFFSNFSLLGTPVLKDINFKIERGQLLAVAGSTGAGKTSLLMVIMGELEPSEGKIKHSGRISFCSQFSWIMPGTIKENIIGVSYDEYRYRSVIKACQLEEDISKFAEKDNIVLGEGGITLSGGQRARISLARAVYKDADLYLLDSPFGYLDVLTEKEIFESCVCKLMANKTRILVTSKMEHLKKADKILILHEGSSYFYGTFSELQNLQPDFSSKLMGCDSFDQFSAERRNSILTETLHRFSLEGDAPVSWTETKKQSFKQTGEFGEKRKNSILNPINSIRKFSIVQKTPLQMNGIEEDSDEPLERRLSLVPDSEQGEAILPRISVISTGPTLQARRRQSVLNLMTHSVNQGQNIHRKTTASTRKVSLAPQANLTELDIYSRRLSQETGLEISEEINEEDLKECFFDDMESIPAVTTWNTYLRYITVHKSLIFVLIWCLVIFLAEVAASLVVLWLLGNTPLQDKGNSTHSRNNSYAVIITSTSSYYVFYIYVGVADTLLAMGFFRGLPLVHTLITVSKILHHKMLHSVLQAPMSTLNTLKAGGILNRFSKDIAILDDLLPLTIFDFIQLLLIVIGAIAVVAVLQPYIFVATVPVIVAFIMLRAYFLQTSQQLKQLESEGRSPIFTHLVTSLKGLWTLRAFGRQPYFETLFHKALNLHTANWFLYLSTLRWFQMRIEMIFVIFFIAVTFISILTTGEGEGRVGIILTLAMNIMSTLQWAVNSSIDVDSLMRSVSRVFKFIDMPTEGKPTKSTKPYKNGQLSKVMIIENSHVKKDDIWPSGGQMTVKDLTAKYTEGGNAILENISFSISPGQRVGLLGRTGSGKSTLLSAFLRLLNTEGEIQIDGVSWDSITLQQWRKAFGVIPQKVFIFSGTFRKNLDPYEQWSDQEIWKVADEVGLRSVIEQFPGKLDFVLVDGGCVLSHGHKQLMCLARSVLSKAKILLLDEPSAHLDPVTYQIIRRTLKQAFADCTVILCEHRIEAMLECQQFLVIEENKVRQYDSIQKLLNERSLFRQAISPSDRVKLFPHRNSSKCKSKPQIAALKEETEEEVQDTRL

## CC(O)(CNC(=O)c1ncc(S(=O)(=O)c2ccc(F)cc2)cc1N)C(F)(F)F (centres unmarked) [Compound 19, 3-amino-5-[(4-fluorophenyl)sulfonyl]-N-(3,3,3-trifluoro-2-hydroxy-2-methylpropyl)pyridine-2-carboxamide]
CFTR ΔF508 mutant
  % Activation: 113.3%
  EC50: 16.4 nM
CFTR G551D mutant
  % Activation: 63.2%
  EC50: 1080 nM
CFTR-G178R
  % Activation: 89.9%
  EC50: 561 nM
CFTR-G1349D
  % Activation: 84.3%
  EC50: 659 nM
CFTR-S549N
  % Activation: 79.6%
  EC50: 1610 nM
CFTR-R117H
  % Activation: 90.8%
  EC50: 186 nM
G551D CFTR
  EC50: 5480 nM

## Nc1cc(S(=O)(=O)c2ccc(OC(F)(F)F)cc2)cnc1C(=O)NCC1(O)CC1 [Compound 15, 3-amino-N-[(1-hydroxycyclopropyl)methyl]-5-{[4-(trifluoromethoxy)phenyl]sulfonyl}pyridine-2-carboxamide]
CFTR ΔF508 mutant
  % Activation: 109.0%
  EC50: 2.6 nM
CFTR G551D mutant
  % Activation: 69.3%
  EC50: 361 nM
G551D CFTR
  EC50: 669 nM

## C[C@@H](O)CNC(=O)c1ncc(S(=O)(=O)c2ccc(OC(F)(F)F)cc2)cc1N [Compound 20, 3-amino-N-[(2R)-2-hydroxypropyl]-5-{[4-(trifluoromethoxy)phenyl]sulfonyl}pyridine-2-carboxamide]
CFTR ΔF508 mutant
  % Activation: 98.5%
  EC50: 29.7 nM
CFTR G551D mutant
  % Activation: 64.8%
  EC50: 893 nM
G551D CFTR
  EC50: 3700 nM

## CC(C)(C)C(O)CNC(=O)c1ncc(S(=O)(=O)c2ccc(OC(F)(F)F)cc2)cc1N (centres unmarked) [Compound 16, 3-amino-N-(2-hydroxy-3,3-dimethylbutyl)-5-{[4-(trifluoromethoxy)phenyl]sulfonyl}pyridine-2-carboxamide]
CFTR ΔF508 mutant
  % Activation: 106.5%
  EC50: 15.7 nM
CFTR G551D mutant
  % Activation: 96.2%
  EC50: 1670 nM
CFTR-G178R
  % Activation: 102.0%
  EC50: 1010 nM
CFTR-G1349D
  % Activation: 99.6%
  EC50: 698 nM
CFTR-S549N
  % Activation: 114.0%
  EC50: > 3330 nM
CFTR-R117H
  % Activation: 112.0%
  EC50: 431 nM

## Nc1cc(S(=O)(=O)c2ccc(C(F)(F)F)cc2)cnc1C(=O)N1CC(OCC(F)F)C1 [Compound 231, (3-amino-5-{[4-(trifluoromethyl)phenyl]sulfonyl}pyridin-2-yl)[3-(2,2-difluoroethoxy)azetidin-1-yl]methanone]
CFTR ΔF508 mutant
  % Activation: 103.3%
  EC50: 52.3 nM
CFTR G551D mutant
  % Activation: 59.2%
  EC50: 450 nM
CFTR-G178R
  % Activation: 98.4%
  EC50: 305 nM
CFTR-G1349D
  % Activation: 83.9%
  EC50: 129 nM
CFTR-S549N
  % Activation: 88.2%
  EC50: 256 nM
CFTR-R117H
  % Activation: 91.3%
  EC50: 442 nM

## CC(CO)CNC(=O)c1ncc(S(=O)(=O)c2ccc(OC(F)(F)F)cc2)cc1N (centres unmarked) [Compound 24, 3-amino-N-(3-hydroxy-2-methylpropyl)-5-{[4-(trifluoromethoxy)phenyl]sulfonyl}pyridine-2-carboxamide]
CFTR ΔF508 mutant
  % Activation: 106.6%
  EC50: 21.4 nM
CFTR G551D mutant
  % Activation: 52.2%
  EC50: 423 nM
G551D CFTR
  EC50: 2830 nM

## CC(C)(O)C1CN(C(=O)c2ncc(S(=O)(=O)c3ccc(C(F)(F)F)cc3)cc2N)C1 [Compound 165, (3-amino-5-{[4-(trifluoromethyl)phenyl]sulfonyl}pyridin-2-yl)[3-(2-hydroxypropan-2-yl)azetidin-1-yl]methanone]
CFTR ΔF508 mutant
  % Activation: 115.2%
  EC50: 10.9 nM
CFTR G551D mutant
  % Activation: 55.0%
  EC50: 287 nM
CFTR-G1349D
  % Activation: 87.6%
  EC50: 214 nM
CFTR-R117H
  % Activation: 94.2%
  EC50: 92.8 nM
G551D CFTR
  EC50: 116 nM

## Nc1cc(S(=O)(=O)c2ccc(OC(F)(F)F)cc2)cnc1C(=O)N[C@@H]1CCCC[C@H]1O (racemic) [Compound 17, rac-3-amino-N-[(1R,2R)-2-hydroxycyclohexyl]-5-{[4-(trifluoromethoxy)phenyl]sulfonyl}pyridine-2-carboxamide]
CFTR ΔF508 mutant
  % Activation: 113.0%
  EC50: 8.8 nM
CFTR G551D mutant
  % Activation: 82.7%
  EC50: 1640 nM
G551D CFTR
  EC50: 1130 nM

## CC(C)(CO)CNC(=O)c1ncc(S(=O)(=O)c2ccc(OC(F)(F)F)cc2)cc1N [Compound 18, 3-amino-N-(3-hydroxy-2,2-dimethylpropyl)-5-{[4-(trifluoromethoxy)phenyl]sulfonyl}pyridine-2-carboxamide]
CFTR ΔF508 mutant
  % Activation: 109.1%
  EC50: 43.1 nM
CFTR G551D mutant
  % Activation: 79.2%
  EC50: > 3330 nM
G551D CFTR
  EC50: 1430 nM

## Nc1cc(S(=O)(=O)c2ccc(F)cc2)cnc1C(=O)N1CC(O)(C(F)(F)F)C1 [Compound 176, {3-amino-5-[(4-fluorophenyl)sulfonyl]pyridin-2-yl}[3-hydroxy-3-(trifluoromethyl)azetidin-1-yl]methanone]
CFTR ΔF508 mutant
  % Activation: 93.4%
  EC50: 1 nM
CFTR G551D mutant
  % Activation: 46.0%
  EC50: 69.4 nM
CFTR-G178R
  % Activation: 79.1%
  EC50: 12.7 nM
CFTR-G1349D
  % Activation: 72.8%
  EC50: 29.5 nM
CFTR-S549N
  % Activation: 92.0%
  EC50: 25.7 nM
CFTR-R117H
  % Activation: 111.0%
  EC50: 22.7 nM

## Nc1cc(S(=O)(=O)c2ccc(OC(F)(F)F)cc2)cnc1C(=O)N[C@@H]1COCC[C@@H]1O (racemic) [Compound 33, rac-3-amino-N-[(3R,4S)-4-hydroxytetrahydro-2H-pyran-3-yl]-5-{[4-(trifluoromethoxy)phenyl]sulfonyl}pyridine-2-carboxamide]
CFTR ΔF508 mutant
  % Activation: 98.6%
  EC50: 42.8 nM
CFTR G551D mutant
  % Activation: 62.3%
  EC50: 1390 nM
CFTR-G178R
  % Activation: 81.8%
  EC50: 514 nM
CFTR-G1349D
  % Activation: 92.9%
  EC50: 543 nM
CFTR-S549N
  % Activation: 82.2%
  EC50: 735 nM
CFTR-R117H
  % Activation: 87.1%
  EC50: 628 nM

## Nc1cc(S(=O)(=O)c2ccc(C(F)(F)F)cc2)cnc1C(=O)NCCO [Compound 217, 3-amino-N-(2-hydroxyethyl)-5-{[4-(trifluoromethyl)phenyl]sulfonyl}pyridine-2-carboxamide]
CFTR ΔF508 mutant
  % Activation: 103.4%
  EC50: 36 nM
CFTR G551D mutant
  % Activation: 51.8%
  EC50: 3030 nM
CFTR-G178R
  % Activation: 63.9%
  EC50: 933 nM
CFTR-G1349D
  % Activation: 62.9%
  EC50: 1350 nM
CFTR-S549N
  % Activation: 55.9%
  EC50: 401 nM
CFTR-R117H
  % Activation: 92.1%
  EC50: 765 nM

## Nc1cc(S(=O)(=O)c2ccc(OC(F)(F)F)cc2)cnc1C(=O)N1CC(O)(C2CC2)C1 [Compound 86, (3-amino-5-{[4-(trifluoromethoxy)phenyl]sulfonyl}pyridin-2-yl)(3-cyclopropyl-3-hydroxyazetidin-1-yl)methanone]
CFTR ΔF508 mutant
  % Activation: 122.0%
  EC50: 3.1 nM
CFTR G551D mutant
  % Activation: 69.3%
  EC50: 332 nM
CFTR-G178R
  % Activation: 78.08%
  EC50: 32.5 nM
CFTR-G1349D
  % Activation: 85.79%
  EC50: 55.3 nM
CFTR-S549N
  % Activation: 98.52%
  EC50: 139 nM
CFTR-R117H
  % Activation: 89.91%
  EC50: 59.5 nM
